ChEMBL document CHEMBL3593213, “Isolation of a Cyclic Depsipetide, Aspergillicin F, and Synthesis of Aspergillicins with Innate Immune-Modulating Activity” (J Nat Prod, 2015)
The source made the active and inactive calls. The rule behind the calls is not given here.

What was measured:
[1] = system: Drosophila; test: Innate immunity-regulating activity in Drosophila Dpt-lacZ larvae assessed as suppression of immune response by measuring DAP-type peptidoglycan-mediated Dpt-lacZ activation at 10 ug/ml incubated at 25 degC for 12 hrs by beta-galactosidase reporter gene assay; type: functional
[2] = system: Drosophila; test: Innate immunity-regulating activity in Drosophila Dpt-lacZ larvae assessed as suppression of immune response by measuring DAP-type peptidoglycan-mediated Dpt-lacZ activation at 1 ug/ml incubated at 25 degC for 12 hrs by beta-galactosidase reporter gene assay; type: functional, organism-based
[3] = system: Drosophila; test: Innate immunity-regulating activity in Drosophila Dpt-lacZ larvae assessed as suppression of immune response by measuring DAP-type peptidoglycan-mediated Dpt-lacZ activation at 0.1 to 100 ug/ml incubated at 25 degC for 12 hrs by beta-galactosidase reporter gene assay; type: functional, organism-based
[4] = system: Drosophila; test: Cytotoxicity against Drosophila S2 assessed as reduction in cell viability at 0.1 to 100 ug/ml by WST8 dye based assay

CC[C@@H](C)[C@H]1NC(=O)[C@@H](NC(C)=O)[C@@H](C)OC(=O)[C@H](C(C)C)NC(=O)[C@H](Cc2ccccc2)N(C)C(=O)[C@@H]2CCCN2C(=O)[C@@H]2CCCN2C1=O was tested. Which inhibition [1] did it give?
The inhibition was “inactive”.

CC[C@@H](C)[C@H]1NC(=O)[C@@H](NC(C)=O)[C@@H](C)OC(=O)[C@H](C(C)C)NC(=O)[C@H](Cc2ccccc2)NC(=O)[C@@H]2CCCN2C(=O)[C@@H]2CCCN2C1=O was tested. Which inhibition [1] did it give?
The inhibition was “inactive”.

For COc1cc(O)c2c(c1)/C=C/C[C@H](O)[C@H](O)[C@@H](O)/C=C/C[C@H](C)OC2=O, which inhibition [2] is on record?
Its inhibition is “Active”.

CCC[C@H]1NC(=O)[C@@H](NC(C)=O)[C@@H](C)OC(=O)[C@H](C(C)C)NC(=O)[C@H](Cc2ccc(OC)cc2)N(C)C(=O)[C@@H]2CCCN2C(=O)[C@@H]2CCCN2C1=O was tested. Which inhibition [1] did it give?
Its inhibition is “inactive”.

Which results are given for CC[C@@H](C)[C@@H]1NC(=O)[C@H](Cc2ccc(OC)cc2)N(C)C(=O)[C@@H]2CCCN2C(=O)[C@@H]2CCCN2C(=O)[C@@H]([C@H](C)CC)NC(=O)[C@@H](NC(C)=O)[C@@H](C)OC1=O?
inhibition at 10 µg/mL [1]: 37%; inhibition [3]: Dose-dependent effect; Activity [4]: Non-toxic

How did the inhibition [1] turn out when CC[C@@H](C)[C@H]1NC(=O)[C@@H](NC(C)=O)[C@@H](C)OC(=O)[C@H]([C@@H](C)CC)NC(=O)[C@H](Cc2ccc(OC)cc2)N(C)C(=O)[C@@H]2CCCN2C(=O)[C@@H]2CCCN2C1=O was run?
The inhibition was “inactive”.

CC[C@@H](C)[C@H]1NC(=O)[C@@H](NC(C)=O)[C@@H](C)OC(=O)[C@H](C(C)C)NC(=O)[C@H](Cc2ccc(OC)cc2)N(C)C(=O)[C@@H]2CCCN2C(=O)[C@@H]2CCCN2C1=O was tested. Which inhibition [1] did it give?
Its inhibition is “inactive”.
